Results from patent US9315520B2, “2-amino-6-methyl-4,4a,5,6-tetrahydropyrano[3,4-d][1,3]thiazin-8a(8H)-yl-1,3-thiazol-4-yl amides” (Pfizer Inc., priority 2014, dated 2016).
Counter-ions that a name gives are not always drawn.

Target: BACE1 (Homo sapiens (Human), UniProt P56817)
Experiment: BACE1 Cell-Free Assay (fluorescence polarization)
Assay type: biochemical
Conditions: geometric mean of 2-4 determinations unless otherwise indicated (b: ≧5; c: single determination); read-out: BACE1 Cell-free Assay IC50
Excerpt: This assay measures the inhibition of the beta-secretase enzyme as it cleaves a non-native peptide.
A synthetic APP substrate that can be cleaved by beta-secretase having N-terminal biotin and made fluorescent by the covalent attachment of Oregon Green at the Cys residue is used to assay beta-secretase activity in the presence or absence of the inhibitory compounds. […] The BACE1 enzyme is affinity purified material from conditioned media of CHO-K1 cells that have been transfected with a soluble BACE construct (BACE1deltaTM96His). […] Plates are covered and incubated for 3 hours at 37° C. […] The activity of the beta-secretase enzyme is detected by changes in the fluorescence polarization that occur when the substrate is cleaved by the enzyme.

BACE1, sequence (P56817 46-457): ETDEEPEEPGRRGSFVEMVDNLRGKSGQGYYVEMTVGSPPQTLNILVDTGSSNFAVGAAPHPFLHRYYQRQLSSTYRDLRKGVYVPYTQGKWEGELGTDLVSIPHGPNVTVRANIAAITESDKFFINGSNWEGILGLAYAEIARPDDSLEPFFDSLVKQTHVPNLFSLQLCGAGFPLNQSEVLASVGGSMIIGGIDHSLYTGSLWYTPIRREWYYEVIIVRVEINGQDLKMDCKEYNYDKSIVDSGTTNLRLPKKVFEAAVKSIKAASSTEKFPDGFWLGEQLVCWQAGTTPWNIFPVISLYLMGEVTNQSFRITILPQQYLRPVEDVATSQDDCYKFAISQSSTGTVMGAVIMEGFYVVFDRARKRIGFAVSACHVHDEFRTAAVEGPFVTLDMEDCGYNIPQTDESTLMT

Row | SMILES | IC50 [µM]
1 | C[C@H]1C[C@H]2CSC(N)=N[C@@]2(c2nc(NC(=O)c3cnc(OCC(C)(F)F)cn3)cs2)CO1 [Example 58, N-{2-[(4aR,6S,8aR)-2-amino-6-methyl-4,4a,5,6-tetrahydropyrano[3,4-d][1,3]thiazin-8a(8H)-yl]-1,3-thiazol-4-yl}-5-(2,2-difluoropropoxy)pyrazine-2-carboxamide] | 0.161
2 | Cc1nc(C)c(C(=O)Nc2csc([C@]34CO[C@@H](C)C[C@H]3CSC(N)=N4)n2)o1 [Example 59, N-{2-[(4aR,6S,8aR)-2-amino-6-methyl-4,4a,5,6-tetrahydropyrano[3,4-d][1,3]thiazin-8a(8H)-yl]-1,3-thiazol-4-yl}-2,4-dimethyl-1,3-oxazole-5-carboxamide, trifluoroacetate salt] | 0.74
3 | C[C@H]1C[C@H]2CSC(N)=N[C@@]2(c2nc(NC(=O)c3cn(C)nc3C(F)(F)F)cs2)CO1 [Example 60, N-{2-[(4aR,6S,8aR)-2-amino-6-methyl-4,4a,5,6-tetrahydropyrano[3,4-d][1,3]thiazin-8a(8H)-yl]-1,3-thiazol-4-yl}-1-methyl-3-(trifluoromethyl)-1H-pyrazole-4-carboxamide, trifluoroacetate salt] | 3.84
4 | CC(C)n1cnc(C(=O)Nc2csc([C@]34CO[C@@H](C)C[C@H]3CSC(N)=N4)n2)c1 [Example 61, N-{2-[(4aR,6S,8aR)-2-amino-6-methyl-4,4a,5,6-tetrahydropyrano[3,4-d][1,3]thiazin-8a(8H)-yl]-1,3-thiazol-4-yl}-1-(propan-2-yl)-1H-imidazole-4-carboxamide, trifluoroacetate salt] | 1.83
5 | CC(C)Cc1cc(C(=O)Nc2csc([C@]34CO[C@@H](C)C[C@H]3CSC(N)=N4)n2)no1 [Example 62, N-{2-[(4aR,6S,8aR)-2-amino-6-methyl-4,4a,5,6-tetrahydropyrano[3,4-d][1,3]thiazin-8a(8H)-yl]-1,3-thiazol-4-yl}-5-(2-methylpropyl)-1,2-oxazole-3-carboxamide, trifluoroacetate salt] | 9.69
6 | C[C@H]1C[C@H]2CSC(N)=N[C@@]2(c2nc(NC(=O)c3cnn(C)c3)cs2)CO1 [Example 63, N-{2-[(4aR,6S,8aR)-2-amino-6-methyl-4,4a,5,6-tetrahydropyrano[3,4-d][1,3]thiazin-8a(8H)-yl]-1,3-thiazol-4-yl}-1-methyl-1H-pyrazole-4-carboxamide, trifluoroacetate salt] | 3.94
7 | Cc1cc(C(=O)Nc2csc([C@]34CO[C@@H](C)C[C@H]3CSC(N)=N4)n2)no1 [Example 64, N-{2-[(4aR,6S,8aR)-2-amino-6-methyl-4,4a,5,6-tetrahydropyrano[3,4-d][1,3]thiazin-8a(8H)-yl]-1,3-thiazol-4-yl}-5-methyl-1,2-oxazole-3-carboxamide, trifluoroacetate salt] | 2.62
8 | CC(C)Cc1cc(C(=O)Nc2csc([C@]34CO[C@@H](C)C[C@H]3CSC(N)=N4)n2)nn1C [Example 65, N-{2-[(4aR,6S,8aR)-2-amino-6-methyl-4,4a,5,6-tetrahydropyrano[3,4-d][1,3]thiazin-8a(8H)-yl]-1,3-thiazol-4-yl}-1-methyl-5-(2-methylpropyl)-1H-pyrazole-3-carboxamide, trifluoroacetate salt] | 51
9 | C[C@H]1C[C@H]2CSC(N)=N[C@@]2(c2nc(NC(=O)c3ccncn3)cs2)CO1 [Example 66, N-{2-[(4aR,6S,8aR)-2-amino-6-methyl-4,4a,5,6-tetrahydropyrano[3,4-d][1,3]thiazin-8a(8H)-yl]-1,3-thiazol-4-yl}pyrimidine-4-carboxamide, trifluoroacetate salt] | 0.575
10 | Cc1cc(C(=O)Nc2csc([C@]34CO[C@@H](C)C[C@H]3CSC(N)=N4)n2)on1 [Example 67, N-{2-[(4aR,6S,8aR)-2-amino-6-methyl-4,4a,5,6-tetrahydropyrano[3,4-d][1,3]thiazin-8a(8H)-yl]-1,3-thiazol-4-yl}-3-methyl-1,2-oxazole-5-carboxamide, trifluoroacetate salt] | 5.04
11 | Cc1cnc(C(=O)Nc2csc([C@]34CO[C@@H](C)C[C@H]3CSC(N)=N4)n2)cn1 [Example 68, N-{2-[(4aR,6S,8aR)-2-amino-6-methyl-4,4a,5,6-tetrahydropyrano[3,4-d][1,3]thiazin-8a(8H)-yl]-1,3-thiazol-4-yl}-5-methylpyrazine-2-carboxamide, trifluoroacetate salt] | 2.11
12 | CC(C)c1cc(C(=O)Nc2csc([C@]34CO[C@@H](C)C[C@H]3CSC(N)=N4)n2)n(C)n1 [Example 70, N-{2-[(4aR,6S,8aR)-2-amino-6-methyl-4,4a,5,6-tetrahydropyrano[3,4-d][1,3]thiazin-8a(8H)-yl]-1,3-thiazol-4-yl}-1-methyl-3-(propan-2-yl)-1H-pyrazole-5-carboxamide, trifluoroacetate salt] | 10.4
13 | CCc1cc(C(=O)Nc2csc([C@]34CO[C@@H](C)C[C@H]3CSC(N)=N4)n2)on1 [Example 71, N-{2-[(4aR,6S,8aR)-2-amino-6-methyl-4,4a,5,6-tetrahydropyrano[3,4-d][1,3]thiazin-8a(8H)-yl]-1,3-thiazol-4-yl}-3-ethyl-1,2-oxazole-5-carboxamide, trifluoroacetate salt] | 9.26
14 | CCn1cc(C(=O)Nc2csc([C@]34CO[C@@H](C)C[C@H]3CSC(N)=N4)n2)cn1 [Example 72, N-{2-[(4aR,6S,8aR)-2-amino-6-methyl-4,4a,5,6-tetrahydropyrano[3,4-d][1,3]thiazin-8a(8H)-yl]-1,3-thiazol-4-yl}-1-ethyl-1H-pyrazole-4-carboxamide, trifluoroacetate salt] | 7.48
15 | Cc1cc(C(=O)Nc2csc([C@]34CO[C@@H](C)C[C@H]3CSC(N)=N4)n2)nn1C [Example 73, N-{2-[(4aR,6S,8aR)-2-amino-6-methyl-4,4a,5,6-tetrahydropyrano[3,4-d][1,3]thiazin-8a(8H)-yl]-1,3-thiazol-4-yl}-1,5-dimethyl-1H-pyrazole-3-carboxamide, trifluoroacetate salt] | 12.4
16 | C[C@H]1C[C@H]2CSC(N)=N[C@@]2(c2nc(NC(=O)c3ncnn3C)cs2)CO1 [Example 74, N-{2-[(4aR,6S,8aR)-2-amino-6-methyl-4,4a,5,6-tetrahydropyrano[3,4-d][1,3]thiazin-8a(8H)-yl]-1,3-thiazol-4-yl}-1-methyl-1H-1,2,4-triazole-5-carboxamide, trifluoroacetate salt] | 4.56
17 | C[C@H]1C[C@H]2CSC(N)=N[C@@]2(c2nc(NC(=O)c3cn(C)cn3)cs2)CO1 [Example 75, N-{2-[(4aR,6S,8aR)-2-amino-6-methyl-4,4a,5,6-tetrahydropyrano[3,4-d][1,3]thiazin-8a(8H)-yl]-1,3-thiazol-4-yl}-1-methyl-1H-imidazole-4-carboxamide, trifluoroacetate salt] | 18.2
18 | C[C@H]1C[C@H]2CSC(N)=N[C@@]2(c2nc(NC(=O)c3cn(C)nn3)cs2)CO1 [Example 76, N-{2-[(4aR,6S,8aR)-2-amino-6-methyl-4,4a,5,6-tetrahydropyrano[3,4-d][1,3]thiazin-8a(8H)-yl]-1,3-thiazol-4-yl}-1-methyl-1H-1,2,3-triazole-4-carboxamide, trifluoroacetate salt] | 28.1
19 | C[C@H]1C[C@H]2CSC(N)=N[C@@]2(c2nc(NC(=O)c3ccon3)cs2)CO1 [Example 77, N-{2-[(4aR,6S,8aR)-2-amino-6-methyl-4,4a,5,6-tetrahydropyrano[3,4-d][1,3]thiazin-8a(8H)-yl]-1,3-thiazol-4-yl}-1,2-oxazole-3-carboxamide, trifluoroacetate salt] | 0.777
20 | C[C@H]1C[C@H]2CSC(N)=N[C@@]2(c2nc(NC(=O)C3CC(F)(F)C3)cs2)CO1 [Example 78, N-{2-[(4aR,6S,8aR)-2-amino-6-methyl-4,4a,5,6-tetrahydropyrano[3,4-d][1,3]thiazin-8a(8H)-yl]-1,3-thiazol-4-yl}-3,3-difluorocyclobutanecarboxamide, trifluoroacetate salt] | 1.49
21 | C[C@H]1C[C@H]2CSC(N)=N[C@@]2(c2nc(NC(=O)c3ncccn3)cs2)CO1 [Example 79, N-{2-[(4aR,6S,8aR)-2-amino-6-methyl-4,4a,5,6-tetrahydropyrano[3,4-d][1,3]thiazin-8a(8H)-yl]-1,3-thiazol-4-yl}pyrimidine-2-carboxamide, trifluoroacetate salt] | 1.08
22 | C[C@H]1C[C@H]2CSC(N)=N[C@@]2(c2nc(NC(=O)c3cc(Cl)n(C)n3)cs2)CO1 [Example 81, N-{2-[(4aR,6S,8aR)-2-amino-6-methyl-4,4a,5,6-tetrahydropyrano[3,4-d][1,3]thiazin-8a(8H)-yl]-1,3-thiazol-4-yl}-5-chloro-1-methyl-1H-pyrazole-3-carboxamide] | 3.38
23 | C[C@H]1C[C@H]2CSC(N)=N[C@@]2(c2nc(NC(=O)c3cnc(C4CC4)cn3)cs2)CO1 [Example 82, N-{2-[(4aR,6S,8aR)-2-amino-6-methyl-4,4a,5,6-tetrahydropyrano[3,4-d][1,3]thiazin-8a(8H)-yl]-1,3-thiazol-4-yl}-5-cyclopropylpyrazine-2-carboxamide, hydrochloride salt] | 1.08
24 | C[C@H]1C[C@H]2CSC(N)=N[C@@]2(c2nc(NC(=O)c3cnn(C(F)F)c3)cs2)CO1 [Example 83, N-{2-[(4aR,6S,8aR)-2-amino-6-methyl-4,4a,5,6-tetrahydropyrano[3,4-d][1,3]thiazin-8a(8H)-yl]-1,3-thiazol-4-yl}-1-(difluoromethyl)-1H-pyrazole-4-carboxamide] | 0.671
